Melting point and Ki data for 2 compounds are collected here from patent US20100190813A1, “SPIRO [PIPERIDINE-4- 4' -THIENO [3,2-C] PYRAN] DERIVATIVES AND RELATED COMPOUNDS AS INHIBITORS OF THE SIGMA RECEPTOR FOR THE TREATMENT OF PSYCHOSIS” (priority 2007, published 2010).

In one series the target is T1, σ2-receptor (Rattus norvegicus, UniProt Q5U3Y7).
T1 construct: the σ2-Receptorpreparation was prepared from rat liver; from tissue; host or cells: rat liver membrane homogenate
T1 sequence (Q5U3Y7 1-176): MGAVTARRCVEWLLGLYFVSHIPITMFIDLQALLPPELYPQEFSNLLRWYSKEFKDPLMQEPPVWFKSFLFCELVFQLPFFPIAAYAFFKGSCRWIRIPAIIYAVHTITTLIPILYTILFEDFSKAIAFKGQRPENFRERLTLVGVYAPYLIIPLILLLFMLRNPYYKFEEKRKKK
As to the kind of experiment: Sigma 2 receptor binding (Version B), [3H]-Ditolylguanidin displacement. The conditions noted are these: version B; rat liver preparation; [3H]-Ditolylguanidin 3 nM; σ1 sites masked with (+)-Pentazocin 500 nM; read-out: Binding σ2 Ki. The procedure:
In brief the σ2-Receptorpreparation was prepared from rat liver. The livers were homogenized in 5 to 6 times of volume sucrose solution (0.32M) and homogenized. The homogenate was centrifuged at 2900 rpm, 4° C., 10 min). the supernatant was centrifuged again (31000×g, 4° C., 20 min). The pellet was resuspended in TRIS-buffer, incubated for 30 min at room temperature while stirring and centrifuged f (31000×g, 4° C., 20 min). The pellet was resuspended in cold TRIS-buffer pH 8 and homogenized. Then the protein content was measured (approx. 2 mg/mL) and the homogenate frozen at −80° C. for later use.
The radioligand used was [^3H]-Ditolylguanidin in TRIS-buffer pH 8. The σ1-receptor binding sites were masked through (+)-Pentazocin-solution in TRIS-Puffer pH 8.
In a volume of 200 μL 50 μL compound solution of varying concentration, 50 μL (+)-Pentazocin-solution ([…]; resulting in 500 nM in the assay), 50 μL radioligand-solution (12 nM; resulting in 3 nM in the assay) and finally 50 μL of receptor preparation (approx. 2 mg/mL) were given into a well of a microplate equipped with a filter. The plate was closed and stirred for 2 h at room temperature and 500 rpm. Following that the solvents were removed by a harvester through the filter. After rinsing with H2O the filter was measured in a scintillation counter ([^3H]-protocol).

The target in series [1] is T2, σ1-receptor (Cavia porcellus, UniProt Q60492).
T2 construct: the σ1-receptor preparation was prepared from guinea pig brain; from tissue; host or cells: guinea pig brain membrane homogenate
As to the kind of experiment: Sigma-1 receptor binding (Version A), [3H]-(+)-pentazocine displacement. Details: species or system guinea pig.

The target of series [2] is T2, σ1-receptor. As to the kind of experiment: Sigma 1 receptor binding (Version B), [3H]-(+)-Pentazocin displacement. Details: species or system guinea pig. The procedure: In brief the σ1-receptor preparation was prepared from guinea pig brain. The brains were homogenized in 5 to 6 times of volume sucrose solution (0.32M) and homogenized. The homogenate was centrifuged at 2900 rpm, 4° C., 10 min). the supernatant was centrifuged again (23500×g, 4° C., 20 min). The pellet was resuspended in Tris-buffer, incubated for 30 min at room temperature and centrifuged f (23500×g, 4° C., 20 min). The pellet was resuspended in cold TRIS-buffer and homogenized. Then the protein content was measured (approx. 1.5 mg/mL) and the homogenate frozen at −80° C. for later use.
The radioligand used was [^3H]-(+)-Pentazocin in TRIS-buffer. In a volume of 200 μL 50 μL TRIS-buffer, 50 μL compound solution of varying concentration, 50 μL radioligand-solution (8 nM; resulting in 2 nM in the assay) and finally 50 μL of receptor preparation (approx. 1.5 mg/mL) were given into a well of a microplate equipped with a filter. The plate was closed and stirred for 2.5 h at 37° C. and 500 rpm. Following that the solvents were removed by a harvester through the filter. After rinsing with H2O the filter was measured in a scintillation counter ([^3H]-protocol).

By melting point is commonly meant the temperature of the solid-liquid transition. For orientation: Ki means the dissociation constant of the complex between target and ligand, obtained from inhibition or displacement.

T2 sequence (Q60492 whole entry): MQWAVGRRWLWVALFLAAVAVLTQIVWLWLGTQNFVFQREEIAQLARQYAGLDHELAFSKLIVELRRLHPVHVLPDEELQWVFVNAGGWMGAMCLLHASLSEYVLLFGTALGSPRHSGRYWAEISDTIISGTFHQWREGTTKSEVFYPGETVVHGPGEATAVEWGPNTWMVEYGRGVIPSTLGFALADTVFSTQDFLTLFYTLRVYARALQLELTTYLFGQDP

Regarding `COC1Cc2sccc2C2(CCN(Cc3ccccc3)CC2)O1` (stereo not shown) [Example 3, 1-Benzyl-6′-methoxy-6′,7′-dihydrospiro[piperidin-4,4′-thieno[3.2-c]pyran]], the melting point came to 78 °C. For the same compound, the Ki on σ2-receptor is 1260 nM. The compound also yielded a Ki at σ1-receptor [1] of 2.4 ± 0.3 nM. Further, at σ1-receptor [2] (version B, guinea pig brain preparation, [3H]-(+)-Pentazocin 2 nM, read-out: Binding σ1 Ki), the Ki was determined as 0.32 ± 0.16 nM.

In turn, `COC1Cc2sccc2C2(CCN(CCc3ccccc3)CC2)O1` (stereo not shown) [Example 4, 6′-Methoxy-1-(2-phenylethyl)-6′,7′-dihydrospiro[piperidin-4,4′-thieno[3.2-c]pyran]] returned a melting point of 94 °C. Also, at σ2-receptor, the Ki came out at 191 nM. The compound further returned a Ki on σ1-receptor [2] of 5.89 ± 5.1 nM.
